# In paper PMC7503713, “GANT61 Reduces Hedgehog Molecule (GLI1) Expression and Promotes Apoptosis in Metastatic Oral Squamous Cell Carcinoma Cells” (International Journal of Molecular Sciences, 2020):
# How the values were obtained:
# Format in all cases: cell-based, human
# HaCat = test: alamarBlue cytotoxicity assay, HaCat; settings: Homo sapiens, 72 h of incubation
# Protocol: (§1) To assess the cytotoxicity of the GLI inhibitor GANT61 (Sigma-Aldrich, St. Louis, MO, USA) in tumor and non-tumor cell lines, an alamarBlue assay (Sigma-Aldrich Chemical Co, St. Louis, MO, USA) was performed after 72 h of exposure to the inhibitor, as described by Ahmed et al., 1994 [46]. Cells were distributed on 96-well plates at a density of 7 × 10^4 cells/mL for adhered cells, and 3 × 10^5 cells/mL for cells in suspension. All tested compounds were dissolved in DMSO, added to wells containing 100 µL of cells in complete medium, and then incubated for 72 h. Eight concentrations of GANT61 (0.19 to 50 µg/mL), Doxorubicin (Laboratory IMA S.A.I.C., Buenos Aires, Argentina), and 5-Fluorouracil (5-FU, Sigma-Aldrich, St. Louis, MO, USA), both used as positive controls at concentrations ranging from 0.03 to 5 µg/mL, were added to respective wells. […] Absorbance was measured at 570 nm (reduced) and 595 nm (oxidized) wavelengths, using a Spectramax 190 plate reader (Molecular Devices; Sunnyvale, CA, USA).
# (§2) Statistical analyses were performed, using GraphPad Prism v. […] Data were analyzed according to distribution along the normal Gaussian curve. […] Differences between groups resulting from in vitro assays were evaluated by ANOVA (analysis of variance) testing, followed by the Student–Newman–Keuls test. […]
# HL60 = test: alamarBlue cytotoxicity assay, HL60; settings: Homo sapiens, HL-60, 72 h of incubation
# Protocol: as §1, §2
# SCC25 = test: alamarBlue cytotoxicity assay, SCC25; settings: Homo sapiens, SCC-25, 72 h of incubation
# Protocol: as §1, §2
# HepG2 = test: alamarBlue cytotoxicity assay, HepG2; settings: Homo sapiens, 72 h of incubation
# Protocol: (§3) To assess the cytotoxicity of the GLI inhibitor GANT61 (Sigma-Aldrich, St. Louis, MO, USA) in tumor and non-tumor cell lines, an alamarBlue assay (Sigma-Aldrich Chemical Co, St. Louis, MO, USA) was performed after 72 h of exposure to the inhibitor, as described by Ahmed et al., 1994 [46]. Cells were distributed on 96-well plates at a density of 7 × 10^4 cells/mL for adhered cells, and 3 × 10^5 cells/mL for cells in suspension. All tested compounds were dissolved in DMSO, added to wells containing 100 µL of cells in complete medium, and then incubated for 72 h. Eight concentrations of GANT61 (0.19 to 50 µg/mL), Doxorubicin (Laboratory IMA S.A.I.C., Buenos Aires, Argentina), and 5-Fluorouracil (5-FU, Sigma-Aldrich, St. Louis, MO, USA), both used as positive controls at concentrations ranging from 0.03 to 5 µg/mL, were added to respective wells. Cells treated with the vehicle (0.5% DMSO) used to dilute the tested compounds were used as negative controls. Before the end of the incubation period (4 h for cell lines and 24 h for PBMCs), 20 µL of alamarBlue stock solution (resazurin, Sigma-Aldrich, St. Louis, MO, USA) was added to each well. Absorbance was measured at 570 nm (reduced) and 595 nm (oxidized) wavelengths, using a Spectramax 190 plate reader (Molecular Devices; Sunnyvale, CA, USA).
# (§4) Statistical analyses were performed, using GraphPad Prism v. 6.03 (GraphPad Software, Inc., San Diego, USA). Data were analyzed according to distribution along the normal Gaussian curve. IC50 values were obtained through non-linear regression, using results from three independent experiments carried out in duplicate. Differences between groups resulting from in vitro assays were evaluated by ANOVA (analysis of variance) testing, followed by the Student–Newman–Keuls test. This study considered a level of significance, corresponding to alpha (α) or “p” value, when results were less than or equal to 5%.
# SCC9 = test: alamarBlue cytotoxicity assay, SCC9; settings: Homo sapiens, SCC-9, 72 h of incubation
# Protocol: as §3, §4
# HSC3 = test: alamarBlue cytotoxicity assay, HSC3; settings: Homo sapiens, HSC-3, 72 h of incubation
# Protocol: For cytotoxicity assessments, this study primarily focused on the highly metastatic HSC3 OSCC cell line (JCRB Cell Bank, Osaka, Japan) and employed other histological tumor cell types and non-tumor cells (Supplementary Table S1). HSC3 cells were placed in flasks ([…], 250 mL volume) containing DMEM medium (Gibco, Lif Technologies, Gaithesburg, MD, USA) supplemented with 10% fetal bovine serum (FBS, Gibco, Life Technologies, Gaithesburg, MD, USA) 1% penicillin, 1% streptomycin (Gibco, Life Technologies, Gaithesburg, MD, USA), and 0.8% hydrocortisone (Sigma-Aldrich, St. Louis, MO, USA). Cells were cultured and kept in incubators, under an atmosphere of 5% CO2 at 37 °C. Trypsinization was used to dissociate cells when cell growth reached the necessary confluence, i.e., 70 to 80% of the total culture flask volume. Cell cultures were tested periodically for mycoplasma contamination and evaluated by using a luminometer, according to the MycoAlert^TM PLUS protocol (Lonza, Walkersville Inc., Walkersville, MD, USA, 2012).
# as §3
# Statistical analyses were performed, using GraphPad Prism v. 6.03 (GraphPad Software, Inc., San Diego, USA). Data were analyzed according to distribution along the normal Gaussian curve. […] Differences between groups resulting from in vitro assays were evaluated by ANOVA (analysis of variance) testing, followed by the Student–Newman–Keuls test. […]
# CAL27 = test: alamarBlue cytotoxicity assay, CAL27; settings: Homo sapiens, CAL-27, 72 h of incubation
# Protocol: as §3, §4
# PBMC = test: alamarBlue cytotoxicity assay, PBMC; settings: Homo sapiens, 72 h of incubation
# Protocol: Human peripheral blood mononuclear cells (PBMC) lymphocytes and monocytes) were obtained from the peripheral blood of healthy, non-smoking volunteers aged 25–35 years. None of the volunteers had used any type of drug or medication for at least 15 days prior to collection. Blood collection (5 mL) was performed in heparinized vials by trained professionals at the Laboratory of Tissue Engineering and Immunopharmacology (LETI, IGM-FIOCRUZ, Salvador, Brazil), using sterile disposable syringes. PBMCs were isolated by a standard protocol described by Dias et al. (2018). The institutional review board of the Gonçalo Moniz Institution, Oswaldo Cruz Foundation (IGM-FIOCRUZ), in Salvador, Bahia, Brazil, approved all experimental protocols (No.031019/2013). All participants provided written informed consent prior to participation in the study.
# as §1, with “h.” for “h. Eight concentrations of GANT61 (0.19 to 50 µg/mL), Doxorubicin (Laboratory IMA S.A.I.C., Buenos Aires, Argentina), and 5-Fluorouracil (5-FU, Sigma-Aldrich, St. Louis, MO, USA), both used as positive controls at concentrations ranging from 0.03 to 5 µg/mL, were added to respective wells.”
# as §2
# HT-29 = test: alamarBlue cytotoxicity assay, HT-29; settings: Homo sapiens; HT-29, alamarBlue, 72 h of incubation
# Protocol: as §1, §2
# K562 = test: alamarBlue cytotoxicity assay, K562; settings: Homo sapiens, 72 h of incubation
# Protocol: as §3, §4
# APC02 = test: alamarBlue cytotoxicity assay, APC02; settings: Homo sapiens, 72 h of incubation
# Protocol: as §1, §2
# AGP01 = test: alamarBlue cytotoxicity assay, AGP01; settings: Homo sapiens, 72 h of incubation
# Protocol: as §1, §2
# SCC15 = test: alamarBlue cytotoxicity assay, SCC15; settings: Homo sapiens, SCC-15, 72 h of incubation
# Protocol: as §1, §2
# SCC4 = test: alamarBlue cytotoxicity assay, SCC4; settings: Homo sapiens, SCC-4, 72 h of incubation
# Protocol: as §1, §2
# APC03 = test: alamarBlue cytotoxicity assay, APC03; settings: Homo sapiens, 72 h of incubation
# Protocol: as §1, §2
# HCT-116 = test: alamarBlue cytotoxicity assay, HCT-116; settings: Homo sapiens; HCT-116, alamarBlue, 72 h of incubation
# Protocol: as §3, §4
smiles,measurement,setting,value
COc1cccc2c1C(=O)c1c(O)c3c(c(O)c1C2=O)C[C@@](O)(C(=O)CO)C[C@@H]3O[C@H]1C[C@H](N)[C@H](O)[C@H](C)O1 [Doxorubicin],IC50,HaCat,100 nM
same,IC50,HL60,10 nM
same,IC50,SCC25,1400 nM
same,IC50,HepG2,10 nM
same,IC50,SCC9,800 nM
same,IC50,HSC3,340 nM
same,IC50,CAL27,3090 nM
same,IC50,PBMC,5200 nM
same,IC50,HT-29,300 nM
same,IC50,K562,50 nM
same,IC50,APC02,6800 nM
same,IC50,AGP01,1890 nM
same,IC50,SCC15,1500 nM
same,IC50,SCC4,70 nM
same,IC50,APC03,2300 nM
same,IC50,HCT-116,200 nM
